Broadly, the pIC50 is the negative decadic logarithm of the IC50, by convention in mol/L. Higher therefore signals a low IC50.

Consider 6 molecules from the supplement of paper PMC12076712.

A value given as a limit tells only on which side of the number the result lay.

Holding throughout (assay): pIC50, kinobeads binding competition
One assay concerns the target PRPF4B (UniProt Q13523). The settings on record: cell material: Lysate mix. In short, it runs like this: (§1)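 Nine compound concentrations were tested, starting at 30 μM in 1:4 steps on live Jurkat cells (60 min, 37 °C, then lysis) or in 1:5 steps on Jurkat lysate or a 1:1:1:1 HEK293/K-562/HepG2/placenta lysate mix (60 min, 4 °C). Kinobeads-bound proteins were digested and quantified with TMT10 LC-MS/MS. pIC50 values are from logistic dose-response fits in the R drc package of fold changes relative to vehicle, from biological duplicates.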

Another assay deals with UniProt Q04912. The settings on record: cell material: Lysate mix. The essentials:
as §1

Another assay concerns the target T1, STRADA (UniProt Q7RTN6).
T1 sequence (whole entry): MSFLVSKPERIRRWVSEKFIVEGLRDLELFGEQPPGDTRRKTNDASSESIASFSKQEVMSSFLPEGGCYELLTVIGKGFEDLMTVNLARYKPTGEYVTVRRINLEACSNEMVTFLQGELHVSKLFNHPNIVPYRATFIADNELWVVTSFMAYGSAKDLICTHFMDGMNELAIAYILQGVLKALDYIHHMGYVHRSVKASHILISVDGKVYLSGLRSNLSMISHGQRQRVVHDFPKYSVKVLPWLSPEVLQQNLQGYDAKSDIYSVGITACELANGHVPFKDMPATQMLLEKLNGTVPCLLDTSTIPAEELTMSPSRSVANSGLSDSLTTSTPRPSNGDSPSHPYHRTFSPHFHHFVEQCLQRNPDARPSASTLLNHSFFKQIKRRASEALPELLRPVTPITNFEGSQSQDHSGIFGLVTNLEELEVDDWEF
The essentials: as §1

The target in a further assay is UniProt Q9Y2H1. In short, it runs like this: as §1
The next assay deals with CDK10 (UniProt Q15131). The essentials: as §1
A further assay concerns the target UniProt Q15303. The conditions noted are these: cell material: Lysate mix. In short, it runs like this:
as §1

The target in the next assay is FRK (UniProt P42685). The settings on record: cell material: Lysate mix. The essentials: as §1
FRK, sequence (P42685 whole entry): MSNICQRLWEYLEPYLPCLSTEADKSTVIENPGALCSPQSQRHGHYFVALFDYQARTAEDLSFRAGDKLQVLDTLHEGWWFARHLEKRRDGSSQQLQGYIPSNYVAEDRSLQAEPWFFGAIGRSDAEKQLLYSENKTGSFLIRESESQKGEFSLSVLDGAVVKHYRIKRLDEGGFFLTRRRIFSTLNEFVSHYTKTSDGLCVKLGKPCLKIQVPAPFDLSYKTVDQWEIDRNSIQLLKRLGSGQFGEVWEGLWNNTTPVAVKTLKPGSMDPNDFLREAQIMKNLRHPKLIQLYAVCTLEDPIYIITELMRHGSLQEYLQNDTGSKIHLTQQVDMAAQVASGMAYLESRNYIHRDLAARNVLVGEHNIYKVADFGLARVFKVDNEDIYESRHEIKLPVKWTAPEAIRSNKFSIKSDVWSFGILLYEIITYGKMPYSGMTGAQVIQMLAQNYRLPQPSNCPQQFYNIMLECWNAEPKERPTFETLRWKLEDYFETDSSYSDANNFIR
Another assay has as its target T2, UniProt Q99683.
T2 sequence (whole entry): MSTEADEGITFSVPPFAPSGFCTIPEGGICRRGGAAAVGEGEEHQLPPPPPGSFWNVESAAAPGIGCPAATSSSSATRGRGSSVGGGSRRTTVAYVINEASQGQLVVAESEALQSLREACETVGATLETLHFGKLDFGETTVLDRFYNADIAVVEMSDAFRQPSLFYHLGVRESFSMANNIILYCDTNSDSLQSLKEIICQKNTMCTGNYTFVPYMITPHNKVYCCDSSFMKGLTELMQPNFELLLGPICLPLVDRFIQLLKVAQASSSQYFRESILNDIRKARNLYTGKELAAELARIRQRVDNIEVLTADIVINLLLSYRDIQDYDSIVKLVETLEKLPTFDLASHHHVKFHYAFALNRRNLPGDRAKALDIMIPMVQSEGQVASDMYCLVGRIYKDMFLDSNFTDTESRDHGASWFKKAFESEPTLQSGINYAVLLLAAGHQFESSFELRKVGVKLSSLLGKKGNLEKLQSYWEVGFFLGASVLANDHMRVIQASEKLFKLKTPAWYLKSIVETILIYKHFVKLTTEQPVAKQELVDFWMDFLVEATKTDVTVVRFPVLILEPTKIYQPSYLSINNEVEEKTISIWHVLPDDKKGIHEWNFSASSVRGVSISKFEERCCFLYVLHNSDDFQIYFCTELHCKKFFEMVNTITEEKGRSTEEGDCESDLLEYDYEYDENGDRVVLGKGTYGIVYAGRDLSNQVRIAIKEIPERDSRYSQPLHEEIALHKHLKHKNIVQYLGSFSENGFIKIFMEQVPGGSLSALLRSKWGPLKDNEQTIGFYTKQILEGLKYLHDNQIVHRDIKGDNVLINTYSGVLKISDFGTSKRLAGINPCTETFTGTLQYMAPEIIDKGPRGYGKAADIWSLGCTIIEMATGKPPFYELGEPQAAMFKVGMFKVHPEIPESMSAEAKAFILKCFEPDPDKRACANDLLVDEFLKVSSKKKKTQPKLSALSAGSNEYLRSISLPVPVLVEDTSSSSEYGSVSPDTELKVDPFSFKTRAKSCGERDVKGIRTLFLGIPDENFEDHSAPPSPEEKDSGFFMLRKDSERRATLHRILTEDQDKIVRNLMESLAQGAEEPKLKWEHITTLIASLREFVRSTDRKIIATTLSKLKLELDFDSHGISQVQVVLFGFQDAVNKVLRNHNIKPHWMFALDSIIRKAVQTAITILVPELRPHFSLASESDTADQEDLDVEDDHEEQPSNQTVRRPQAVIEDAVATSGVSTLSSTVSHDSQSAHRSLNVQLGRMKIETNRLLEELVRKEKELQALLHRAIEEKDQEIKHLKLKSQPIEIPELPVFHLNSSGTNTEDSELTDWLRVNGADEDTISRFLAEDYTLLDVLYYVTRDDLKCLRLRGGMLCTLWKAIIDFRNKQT
The essentials:
as §1

A further assay deals with UniProt Q9HCP0. The essentials:
as §1

Another assay has as its target TNIK (UniProt Q9UKE5). The essentials:
as §1

The target of another assay is T3, UniProt Q9UQB9.
T3 sequence (whole entry): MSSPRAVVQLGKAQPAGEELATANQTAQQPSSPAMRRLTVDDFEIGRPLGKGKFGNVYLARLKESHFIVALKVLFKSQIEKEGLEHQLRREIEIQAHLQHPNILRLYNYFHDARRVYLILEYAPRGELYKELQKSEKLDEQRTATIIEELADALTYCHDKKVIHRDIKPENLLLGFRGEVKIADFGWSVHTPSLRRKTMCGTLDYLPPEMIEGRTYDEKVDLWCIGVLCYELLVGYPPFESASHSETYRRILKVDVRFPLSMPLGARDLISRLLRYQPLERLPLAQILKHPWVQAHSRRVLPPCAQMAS
The essentials:
as §1

A further assay deals with CLK3 (UniProt P49761). In short, it runs like this: as §1
CLK3, sequence (P49761 whole entry, looked up): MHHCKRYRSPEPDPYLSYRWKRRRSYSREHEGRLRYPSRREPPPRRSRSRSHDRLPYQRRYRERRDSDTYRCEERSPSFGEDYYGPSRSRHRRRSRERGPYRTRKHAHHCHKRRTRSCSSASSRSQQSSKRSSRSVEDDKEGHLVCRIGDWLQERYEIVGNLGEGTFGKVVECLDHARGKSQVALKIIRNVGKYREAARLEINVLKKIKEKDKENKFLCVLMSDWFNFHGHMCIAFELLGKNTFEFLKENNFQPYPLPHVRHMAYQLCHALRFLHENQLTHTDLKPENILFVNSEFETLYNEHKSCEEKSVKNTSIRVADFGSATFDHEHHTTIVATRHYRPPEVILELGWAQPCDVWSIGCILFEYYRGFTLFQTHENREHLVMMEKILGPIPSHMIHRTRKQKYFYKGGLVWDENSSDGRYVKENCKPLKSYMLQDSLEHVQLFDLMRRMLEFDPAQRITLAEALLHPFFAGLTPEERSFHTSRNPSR
A further assay addresses CLK2 (UniProt P49760). The essentials: as §1
For the next assay, the target named is UniProt Q8NEB9. In short, it runs like this: as §1
For another assay, the target named is MAPKAPK3 (UniProt Q16644). The essentials:
as §1

PRPF4B, sequence (Q13523 whole entry, looked up): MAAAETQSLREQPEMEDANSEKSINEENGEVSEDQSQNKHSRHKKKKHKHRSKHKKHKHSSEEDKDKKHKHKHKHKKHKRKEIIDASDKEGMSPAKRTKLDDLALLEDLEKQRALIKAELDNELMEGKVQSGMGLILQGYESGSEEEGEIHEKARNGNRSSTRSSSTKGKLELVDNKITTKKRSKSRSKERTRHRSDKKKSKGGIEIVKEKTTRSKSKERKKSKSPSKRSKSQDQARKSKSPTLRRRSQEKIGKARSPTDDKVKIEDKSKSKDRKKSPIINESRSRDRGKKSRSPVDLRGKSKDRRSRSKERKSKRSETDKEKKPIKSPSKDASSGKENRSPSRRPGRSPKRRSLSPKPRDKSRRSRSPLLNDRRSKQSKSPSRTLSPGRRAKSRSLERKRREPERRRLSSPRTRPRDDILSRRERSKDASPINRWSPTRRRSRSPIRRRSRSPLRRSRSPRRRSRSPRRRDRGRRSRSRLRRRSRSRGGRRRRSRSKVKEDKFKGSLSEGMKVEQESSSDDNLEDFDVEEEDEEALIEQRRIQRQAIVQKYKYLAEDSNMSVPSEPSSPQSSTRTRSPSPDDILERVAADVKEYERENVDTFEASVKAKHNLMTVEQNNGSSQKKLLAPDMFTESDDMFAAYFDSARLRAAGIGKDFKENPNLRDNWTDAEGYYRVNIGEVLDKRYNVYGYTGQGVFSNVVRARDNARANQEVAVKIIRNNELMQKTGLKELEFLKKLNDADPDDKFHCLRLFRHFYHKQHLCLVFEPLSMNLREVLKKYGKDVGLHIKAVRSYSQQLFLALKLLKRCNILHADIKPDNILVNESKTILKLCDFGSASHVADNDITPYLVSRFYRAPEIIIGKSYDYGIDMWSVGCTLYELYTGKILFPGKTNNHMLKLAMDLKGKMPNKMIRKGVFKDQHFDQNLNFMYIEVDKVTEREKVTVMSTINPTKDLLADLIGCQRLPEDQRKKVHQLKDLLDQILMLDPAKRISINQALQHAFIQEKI
MAPKAPK3, sequence (Q16644 whole entry, looked up): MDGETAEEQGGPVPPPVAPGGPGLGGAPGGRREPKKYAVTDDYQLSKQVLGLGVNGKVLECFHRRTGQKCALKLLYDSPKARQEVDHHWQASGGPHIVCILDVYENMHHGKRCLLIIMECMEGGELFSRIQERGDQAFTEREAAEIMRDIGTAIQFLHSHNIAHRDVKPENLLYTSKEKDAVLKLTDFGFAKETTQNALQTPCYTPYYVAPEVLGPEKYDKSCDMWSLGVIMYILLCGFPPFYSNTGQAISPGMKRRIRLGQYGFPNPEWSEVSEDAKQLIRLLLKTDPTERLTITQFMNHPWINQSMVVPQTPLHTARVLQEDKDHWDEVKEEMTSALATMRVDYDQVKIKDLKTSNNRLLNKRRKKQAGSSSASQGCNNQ
UniProt Q9HCP0, sequence (Q9HCP0 whole entry, looked up): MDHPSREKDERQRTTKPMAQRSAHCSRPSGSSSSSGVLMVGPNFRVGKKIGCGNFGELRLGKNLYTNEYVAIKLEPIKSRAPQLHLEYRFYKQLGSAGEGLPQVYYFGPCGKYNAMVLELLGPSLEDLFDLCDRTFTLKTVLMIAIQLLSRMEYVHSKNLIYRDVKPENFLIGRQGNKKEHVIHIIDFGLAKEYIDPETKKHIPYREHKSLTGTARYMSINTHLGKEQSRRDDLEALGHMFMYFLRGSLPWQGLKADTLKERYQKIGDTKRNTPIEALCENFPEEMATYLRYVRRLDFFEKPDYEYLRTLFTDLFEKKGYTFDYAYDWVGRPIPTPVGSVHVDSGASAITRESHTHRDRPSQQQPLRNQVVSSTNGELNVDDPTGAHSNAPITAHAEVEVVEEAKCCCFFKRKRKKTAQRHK
UniProt Q04912, sequence (Q04912 whole entry): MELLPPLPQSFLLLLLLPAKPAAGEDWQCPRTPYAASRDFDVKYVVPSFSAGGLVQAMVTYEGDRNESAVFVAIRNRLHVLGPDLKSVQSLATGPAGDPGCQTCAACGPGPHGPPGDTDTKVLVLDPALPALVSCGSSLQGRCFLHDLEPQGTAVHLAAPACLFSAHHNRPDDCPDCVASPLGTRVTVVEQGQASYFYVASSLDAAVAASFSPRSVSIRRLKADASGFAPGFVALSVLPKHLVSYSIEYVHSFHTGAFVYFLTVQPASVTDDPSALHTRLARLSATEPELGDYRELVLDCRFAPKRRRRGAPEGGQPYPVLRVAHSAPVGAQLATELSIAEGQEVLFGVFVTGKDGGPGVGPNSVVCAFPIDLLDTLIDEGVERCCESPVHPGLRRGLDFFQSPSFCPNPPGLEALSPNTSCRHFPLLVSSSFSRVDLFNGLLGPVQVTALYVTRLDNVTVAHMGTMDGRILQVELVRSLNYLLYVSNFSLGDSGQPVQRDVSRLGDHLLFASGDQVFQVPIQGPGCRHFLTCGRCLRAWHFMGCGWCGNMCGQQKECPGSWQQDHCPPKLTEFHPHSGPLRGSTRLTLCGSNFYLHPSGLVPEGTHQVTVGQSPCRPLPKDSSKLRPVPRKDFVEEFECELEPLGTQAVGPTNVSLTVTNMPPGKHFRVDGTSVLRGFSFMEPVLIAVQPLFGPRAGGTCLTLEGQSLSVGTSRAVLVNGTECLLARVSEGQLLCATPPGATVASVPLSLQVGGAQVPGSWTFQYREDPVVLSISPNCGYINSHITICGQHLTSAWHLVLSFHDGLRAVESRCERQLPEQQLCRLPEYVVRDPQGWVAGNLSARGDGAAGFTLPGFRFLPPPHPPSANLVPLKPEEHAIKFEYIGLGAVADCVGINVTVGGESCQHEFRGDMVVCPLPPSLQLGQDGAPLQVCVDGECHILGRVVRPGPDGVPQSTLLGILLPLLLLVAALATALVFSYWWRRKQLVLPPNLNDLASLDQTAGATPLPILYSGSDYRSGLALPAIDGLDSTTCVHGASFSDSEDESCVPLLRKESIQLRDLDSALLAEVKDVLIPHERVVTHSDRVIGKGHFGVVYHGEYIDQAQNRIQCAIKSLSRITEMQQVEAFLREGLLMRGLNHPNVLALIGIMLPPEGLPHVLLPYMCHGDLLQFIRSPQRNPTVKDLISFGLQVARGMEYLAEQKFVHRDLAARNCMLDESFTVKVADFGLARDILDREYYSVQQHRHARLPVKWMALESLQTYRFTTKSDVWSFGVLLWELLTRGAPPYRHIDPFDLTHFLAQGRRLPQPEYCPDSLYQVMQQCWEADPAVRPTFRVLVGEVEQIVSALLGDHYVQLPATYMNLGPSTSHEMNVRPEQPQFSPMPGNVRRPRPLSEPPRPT
CLK2, sequence (P49760 whole entry, looked up): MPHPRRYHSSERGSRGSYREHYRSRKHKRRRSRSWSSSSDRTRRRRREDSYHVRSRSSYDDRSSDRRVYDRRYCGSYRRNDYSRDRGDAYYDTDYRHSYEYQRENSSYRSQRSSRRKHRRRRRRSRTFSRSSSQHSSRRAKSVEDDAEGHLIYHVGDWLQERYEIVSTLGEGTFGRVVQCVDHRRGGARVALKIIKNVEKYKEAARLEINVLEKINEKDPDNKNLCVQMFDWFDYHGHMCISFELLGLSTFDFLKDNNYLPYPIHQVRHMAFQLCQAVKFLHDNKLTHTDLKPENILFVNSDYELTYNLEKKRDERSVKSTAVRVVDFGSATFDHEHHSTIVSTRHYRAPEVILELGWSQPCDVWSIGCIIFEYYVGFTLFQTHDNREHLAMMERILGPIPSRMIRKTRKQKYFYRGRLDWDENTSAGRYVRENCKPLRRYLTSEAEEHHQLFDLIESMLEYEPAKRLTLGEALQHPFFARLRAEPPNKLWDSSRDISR

Take `Cc1cc(Nc2cc(C(=O)NCCNC(=O)OC3CC/C=C/CCC3)nc(N3CCN(Cc4ccc(S(=O)(=O)F)cc4)CC3)n2)n[nH]1` (configuration not stated): the negative-log IC50 (pIC50) at PRPF4B, at UniProt Q04912, on STRADA (cell material: Lysate mix), at UniProt Q9Y2H1 (cell material: Lysate mix), on CDK10 (cell material: Lysate mix) and at UniProt Q15303 was less than 4.52 throughout. In addition, the negative logarithm of the IC50 (pIC50) on FRK was less than 4.52; at UniProt Q99683 (cell material: Lysate mix) it was less than 4.52; on UniProt Q9HCP0 (cell material: Lysate mix), less than 4.52; at TNIK (cell material: Lysate mix) it was less than 4.52; at UniProt Q9UQB9 (cell material: Lysate mix), 4.7.

As to `C#CCNC(=O)c1cc(Nc2cc(C3CC3)[nH]n2)nc(N2CCN(Cc3ccc(S(=O)(=O)F)cc3)CC2)n1`, the pIC50 is less than 4.52 at PRPF4B; 5.99 at STRADA (cell material: Jurkat cells); 5.36 at STRADA (cell material: Jurkat lysate); 5.7 at STRADA (cell material: Lysate mix); less than 4.52 at CLK3 (cell material: Jurkat lysate); 5.15 at CLK3 (cell material: Lysate mix). Also, the negative logarithm of the IC50 (pIC50) on UniProt Q9Y2H1 (cell material: Jurkat cells) is 6.28; on UniProt Q9Y2H1 (cell material: Jurkat lysate), 5.56; on CDK10 (cell material: Jurkat cells) it was 6.16; at CDK10 (cell material: Jurkat lysate) it was 6.04; on CDK10 (cell material: Lysate mix) it was 5.82; on FRK it was 6.27. In addition, the negative logarithm of the IC50 (pIC50) at CLK2 (cell material: Jurkat cells) is 6.11; at CLK2 (cell material: Jurkat lysate), 5.57; on UniProt Q8NEB9 (cell material: Jurkat cells), 4.87; at UniProt Q99683 (cell material: Jurkat cells), 5.39; on UniProt Q99683 (cell material: Jurkat lysate) it was less than 4.52; at UniProt Q99683 (cell material: Lysate mix) it was less than 4.52. In addition, the negative-log IC50 (pIC50) on UniProt Q9HCP0 (cell material: Jurkat cells) is 5.12; on UniProt Q9HCP0 (cell material: Jurkat lysate), less than 4.52; at TNIK (cell material: Jurkat lysate) it was less than 4.52; at TNIK (cell material: Lysate mix), 5.27; on MAPKAPK3 (cell material: Jurkat cells), 6.53; at MAPKAPK3 (cell material: Jurkat lysate) it was 6.64. For the same molecule, the results for the pIC50 on UniProt Q9UQB9 (cell material: Jurkat lysate) and at UniProt Q9UQB9 (cell material: Lysate mix) were 5.48 and 5.81, respectively.

`CCNC(=O)c1cc(Nc2cc(C3CC3)[nH]n2)nc(N2CCN(Cc3ccc(S(=O)(=O)F)cc3)CC2)n1`: the negative-log IC50 (pIC50) at PRPF4B was 5.12; at UniProt Q04912, less than 4.52; on STRADA (cell material: Lysate mix), 5.29; on CLK3 (cell material: Lysate mix), 4.85; on CDK10 (cell material: Lysate mix) it was 5.29; on UniProt Q15303, 4.96. For the same molecule, the negative logarithm of the IC50 (pIC50) was 5.98 at FRK; 5.55 on CLK2 (cell material: Lysate mix); less than 4.52 at UniProt Q8NEB9 (cell material: Lysate mix); less than 4.52 at UniProt Q99683 (cell material: Lysate mix); 5.26 at UniProt Q9UQB9 (cell material: Lysate mix).

On to `C#CCNC(=O)c1cc(Nc2cc(C)[nH]n2)nc(N2CCN(Cc3ccc(S(=O)(=O)F)cc3)CC2)n1`, for which the negative logarithm of the IC50 (pIC50) at UniProt Q04912 is less than 4.52; at CLK3 (cell material: Lysate mix), less than 4.52; on UniProt Q9Y2H1 (cell material: Lysate mix) it was 4.77; at UniProt Q15303 it was 4.99; at FRK it was 5.78; on UniProt Q9HCP0 (cell material: Lysate mix), less than 4.52.

Consider `O=C(NCCNC(=O)c1cc(Nc2cc(C3CC3)[nH]n2)nc(N2CCN(Cc3ccc(S(=O)(=O)F)cc3)CC2)n1)OC1CC/C=C/CCC1` (configuration not stated), for which the pIC50 at PRPF4B was less than 4.52; on UniProt Q04912, less than 4.52; at STRADA (cell material: Jurkat cells), 5.78; at STRADA (cell material: Jurkat lysate), less than 4.52; at STRADA (cell material: Lysate mix), less than 4.52; on CLK3 (cell material: Jurkat lysate) it was less than 4.52. For the same molecule, the pIC50 at CLK3 (cell material: Lysate mix) was less than 4.52; at UniProt Q9Y2H1 (cell material: Jurkat cells), 5.79; at UniProt Q9Y2H1 (cell material: Lysate mix), less than 4.52; at CDK10 (cell material: Jurkat cells), 6.06; on CDK10 (cell material: Lysate mix) it was less than 4.52; at UniProt Q15303, less than 4.52. Moreover, the pIC50 was 5.92 at CLK2 (cell material: Jurkat cells); less than 4.52 on CLK2 (cell material: Jurkat lysate); less than 4.52 at CLK2 (cell material: Lysate mix); less than 4.52 at UniProt Q8NEB9 (cell material: Jurkat cells); 4.75 on UniProt Q99683 (cell material: Jurkat cells); less than 4.52 at UniProt Q99683 (cell material: Jurkat lysate). For the same molecule, the pIC50 is less than 4.52 at UniProt Q99683 (cell material: Lysate mix); less than 4.52 at UniProt Q9HCP0 (cell material: Jurkat lysate); less than 4.52 at UniProt Q9HCP0 (cell material: Lysate mix); 5.6 at TNIK (cell material: Jurkat cells); less than 4.52 at TNIK (cell material: Jurkat lysate); less than 4.52 on TNIK (cell material: Lysate mix). Also, the negative-log IC50 (pIC50) at MAPKAPK3 (cell material: Jurkat cells) was 6.36; at MAPKAPK3 (cell material: Jurkat lysate) it was 6.28; on MAPKAPK3 (cell material: Lysate mix), less than 4.52; on UniProt Q9UQB9 (cell material: Lysate mix), 4.88.

As for `CCNC(=O)c1cc(Nc2cc(C)[nH]n2)nc(N2CCN(Cc3ccc(S(=O)(=O)F)cc3)CC2)n1`, the negative logarithm of the IC50 (pIC50) was 4.54 on UniProt Q04912; less than 4.52 on CLK3 (cell material: Lysate mix); less than 4.52 on UniProt Q9Y2H1 (cell material: Lysate mix); 5.04 on UniProt Q15303; 6.23 at FRK; 4.69 on UniProt Q99683 (cell material: Lysate mix). Also, the pIC50 at UniProt Q9HCP0 (cell material: Lysate mix) is less than 4.52; on TNIK (cell material: Lysate mix) it was less than 4.52; on MAPKAPK3 (cell material: Lysate mix), 5.74; at UniProt Q9UQB9 (cell material: Lysate mix), 5.64.
